Several values for one entry are separate records, joined by “and”; a condition that tells them apart may be missing. Equal values may be shown once. Where a name gives a salt, the structure may show the parent alone. Read-outs that look alike come from different tables or passages of the source.
Assays:
[1] = system: Salmonella typhimurium TA 1535; settings: TA1535
Method: (§1) A test was carried out in accordance with the “Standard of Mutagenicity Tests Using Microorganisms” (Ministry of Labor Notification No. 77, 1988) (partial revision by Ministry of Labor Notification No. 67, 1997) and “Regarding the Tests Concerning Novel Chemical Substances and the like” (dated Nov. 21, 2003: Yaku-Shoku-Hatsu No. 1121002, 2003.11.13 Sei-Kyoku, No. 2, Kan-Ho-Ki-Hatsu No. 031121002). To 0.1 ml of a solution prepared by dissolving 5% (w/v) of 5-aminolevulinic acid phosphate in distilled water (Wako Pure Chemical Industries), 0.5 ml of 0.1 M sodium-phosphate buffer (pH 7.4) (0.5 ml S9 mix in the case of metabolism activation test) was added, and 0.1 ml of each test strain suspension (5 strains of histidine-less Salmonella typhimurium TA 100, TA 98, TA 1535 and TA 1537 and tryptophan-less Escherichia coli WP2 uvrA were used (Japan Bioassay Research Center)) was further added thereto, followed by pre-incubation at 37° C. for 20 minutes while shaking. After completion of the culturing, 2.0 ml of top agar kept at 45° C. in advance was added thereto and layered on a minimum glucose agar plate medium. In this case, 2 plates were arranged for each dosage. However, 3 plates were arranged for a solvent control (negative control). […] In the measurement, an inner area of about 80 mm in diameter of a plate of 86 mm in diameter (84 mm in inner diameter) was measured using an automatic colony analyzer (CA-11: manufactured by System Science), and calculated by carrying out area correction and counting loss correction using a personal computer. However, since reliability of the automatic colony analyzer is reduced when the number of colonies is 1,500 or more, 5 points in the plate were manually measured under the stereoscopic microscope to carry out area correction of the average value. A dosage setting test was carried out on 7 dosages diluted at a common ratio of 4, using a dosage of 5,000 μg/plate as the maximum which is the maximum dosage defined by the guideline.

radish = test: Plant activating effect, foliar application, radish; type: in vivo; settings: 21 days, 12 seeds
Method: After 600 g of upland soil was packed in a porcelain pot of 12 cm in inner diameter, 12 grains of radish seeds were sowed therein, covered with 5 mm in depth of the soil and allowed to grow in a green house. Foliar application treatment was carried out once a day using the following application liquids. Conditions of the leaves 21 days thereafter were observed.

[2] = system: spiderwort Commelina communis; test: Plant activating effect, foliar application, spiderwort; type: in vivo; settings: 21 days, 12 plants
Method: A total of 12 pots, in which 600 g of volcanic ash soil was packed in a porcelain pot of 12 cm in inner diameter, and 1 plant of a spiderwort Commelina communis grown to a height of 15 cm was planted in 1 pot, were prepared and placed under a constant temperature environment of 20° C., and foliar application treatment was carried out once a day using the following application liquids. Conditions of the leaves 21 days thereafter were observed.

[3] = system: Salmonella typhimurium TA 100; test: Back mutation test, TA100; type: cell-based
Method: (§2) A test was carried out in accordance with the “Standard of Mutagenicity Tests Using Microorganisms” (Ministry of Labor Notification No. 77, 1988) (partial revision by Ministry of Labor Notification No. 67, 1997) and “Regarding the Tests Concerning Novel Chemical Substances and the like” (dated Nov. 21, 2003: Yaku-Shoku-Hatsu No. 1121002, 2003.11.13 Sei-Kyoku, No. 2, Kan-Ho-Ki-Hatsu No. 031121002). To 0.1 ml of a solution prepared by dissolving 5% (w/v) of 5-aminolevulinic acid phosphate in distilled water (Wako Pure Chemical Industries), 0.5 ml of 0.1 M sodium-phosphate buffer (pH 7.4) (0.5 ml S9 mix in the case of metabolism activation test) was added, and 0.1 ml of each test strain suspension (5 strains of histidine-less Salmonella typhimurium TA 100, TA 98, TA 1535 and TA 1537 and tryptophan-less Escherichia coli WP2 uvrA were used (Japan Bioassay Research Center)) was further added thereto, followed by pre-incubation at 37° C. for 20 minutes while shaking. After completion of the culturing, 2.0 ml of top agar kept at 45° C. in advance was added thereto and layered on a minimum glucose agar plate medium. In this case, 2 plates were arranged for each dosage. However, 3 plates were arranged for a solvent control (negative control). […] In the measurement, an inner area of about 80 mm in diameter of a plate of 86 mm in diameter (84 mm in inner diameter) was measured using an automatic colony analyzer (CA-11: manufactured by System Science), and calculated by carrying out area correction and counting loss correction using a personal computer. However, since reliability of the automatic colony analyzer is reduced when the number of colonies is 1,500 or more, 5 points in the plate were manually measured under the stereoscopic microscope to carry out area correction of the average value. A dosage setting test was carried out on 7 dosages diluted at a common ratio of 4, using a dosage of 5,000 μg/plate as the maximum which is the maximum dosage defined by the guideline. […] Growth inhibition of the strains by this substance to be tested was not found. […] Thus, this test was carried out by setting 5 dosages diluted at a common ratio of 2, using a dosage of 5,000 μg/plate as the maximum which is the maximum dosage defined by the guideline.

[4] = system: Salmonella typhimurium TA 98; test: Back mutation test, TA98; type: cell-based
Method: as §2

[5] = system: Escherichia coli WP2 uvrA; test: Back mutation test, WP2uvrA; type: cell-based
Method: as §2

[6] = system: Salmonella typhimurium TA 1537; settings: TA1537; for Positive control, number of back mutation, single plates: dihydrochloride
Method: as §1

[7] = S9 Mix not required, 0.5 μg/plate
[8] = S9 Mix not required, 0.01 μg/plate
[9] = S9 Mix not required, 0.1 μg/plate
[10] = S9 Mix not required, 1.0 μg/plate

[N-]=[N+]=[N-] [NaN3, sodium azide, reference compound]
Positive control, number of back mutation, mean (in parentheses) [1, 7]: (210) Colonies/plate | Positive control, number of back mutation, single plates [1, 7]: 203 Colonies/plate and 216 Colonies/plate | Positive control, number of back mutation, mean (in parentheses) ([1]; S9 Mix required, 2.0 μg/plate): (138) Colonies/plate | Positive control, number of back mutation, single plates ([1]; S9 Mix required, 2.0 μg/plate): 137 Colonies/plate and 138 Colonies/plate

O=[N+]([O-])[O-].[Na+] [sodium nitrate]
plants judged 0: Abnormality was not found on the leaf surface (radish; 1 ppm in tap water): 2 plants | plants judged 1: A region discolored to yellow was found on the leaf surface (radish; 1 ppm in tap water): 6 plants | plants judged 2: A necrotic region was found on the leaf surface (radish; 1 ppm in tap water): 4 plants | plants judged 0: Abnormality was not found on the leaf surface (radish; 10 ppm in tap water): 2 plants | plants judged 1: A region discolored to yellow was found on the leaf surface (radish; 10 ppm in tap water): 4 plants | plants judged 2: A necrotic region was found on the leaf surface (radish; 10 ppm in tap water): 6 plants | plants judged 0: Abnormality was not found on the leaf surface (radish; 100 ppm in tap water): 2 plants | plants judged 1: A region discolored to yellow was found on the leaf surface (radish; 100 ppm in tap water): 5 plants | plants judged 2: A necrotic region was found on the leaf surface (radish; 100 ppm in tap water): 5 plants

O=P(O)(O)O [sodium phosphate]
plants judged 0: Abnormality was not found on the leaf surface ([2]; 1 ppm in tap water): 4 plants | plants judged 1: A region discolored to yellow was found on the leaf surface ([2]; 1 ppm in tap water): 3 plants | plants judged 2: A necrotic region was found on the leaf surface ([2]; 1 ppm in tap water): 5 plants | plants judged 0: Abnormality was not found on the leaf surface ([2]; 10 ppm in tap water): 2 plants | plants judged 1: A region discolored to yellow was found on the leaf surface ([2]; 10 ppm in tap water): 4 plants | plants judged 2: A necrotic region was found on the leaf surface ([2]; 10 ppm in tap water): 6 plants | plants judged 0: Abnormality was not found on the leaf surface ([2]; 100 ppm in tap water): 3 plants | plants judged 1: A region discolored to yellow was found on the leaf surface ([2]; 100 ppm in tap water): 2 plants | plants judged 2: A necrotic region was found on the leaf surface ([2]; 100 ppm in tap water): 7 plants

NC(=O)C(=Cc1ccc([N+](=O)[O-])o1)c1ccco1 [AF-2, 2-(2-furyl)-3-(5-nitro-2-furyl)acrylamide, reference compound]
Positive control, number of back mutation, mean (in parentheses) [3, 8]: (572) Colonies/plate | Positive control, number of back mutation, single plates [3, 8]: 564 Colonies/plate and 580 Colonies/plate | Positive control, number of back mutation, mean (in parentheses) ([3]; S9 Mix required, 1.0 μg/plate): (1230) Colonies/plate | Positive control, number of back mutation, single plates ([3]; S9 Mix required, 1.0 μg/plate): 1275 Colonies/plate and 1184 Colonies/plate | Positive control, number of back mutation, mean (in parentheses) [4, 9]: (568) Colonies/plate | Positive control, number of back mutation, single plates [4, 9]: 575 Colonies/plate and 560 Colonies/plate | Positive control, number of back mutation, mean (in parentheses) ([4]; S9 Mix required, 0.5 μg/plate): (665) Colonies/plate | Positive control, number of back mutation, single plates ([4]; S9 Mix required, 0.5 μg/plate): 661 Colonies/plate and 668 Colonies/plate | Positive control, number of back mutation, mean (in parentheses) [5, 8]: (152) Colonies/plate | Positive control, number of back mutation, single plates [5, 8]: 155 Colonies/plate and 149 Colonies/plate | Positive control, number of back mutation, mean (in parentheses) ([5]; S9 Mix required, 10.0 μg/plate): (1267) Colonies/plate | Positive control, number of back mutation, single plates ([5]; S9 Mix required, 10.0 μg/plate): 1230 Colonies/plate and 1304 Colonies/plate

Cc1ccc(S(=O)(=O)O)cc1 [p-toluenesulfonic acid]
plants judged 0: Abnormality was not found on the leaf surface (radish; 1 ppm in tap water): 1 plant^ plants | plants judged 1: A region discolored to yellow was found on the leaf surface (radish; 1 ppm in tap water): 2 plants | plants judged 2: A necrotic region was found on the leaf surface (radish; 1 ppm in tap water): 9 plants | plants judged 0: Abnormality was not found on the leaf surface (radish; 10 ppm in tap water): 1 plant^ plants | plants judged 1: A region discolored to yellow was found on the leaf surface (radish; 10 ppm in tap water): 2 plants | plants judged 2: A necrotic region was found on the leaf surface (radish; 10 ppm in tap water): 9 plants | plants judged 0: Abnormality was not found on the leaf surface (radish; 100 ppm in tap water): 0 plant^ plants | plants judged 1: A region discolored to yellow was found on the leaf surface (radish; 100 ppm in tap water): 3 plants | plants judged 2: A necrotic region was found on the leaf surface (radish; 100 ppm in tap water): 9 plants

COc1ccc2nc3cc(Cl)ccc3c(NCCCNCCCl)c2c1 [ICR-191, 6-chloro-9-[3-(2-chloroethylamine)-propylamino]-2-methoxyacridine dihydrochloride, reference compound]
Positive control, number of back mutation, mean (in parentheses) [6, 10]: (4001) Colonies/plate | Positive control, number of back mutation, single plates [6, 10]: 4068 Colonies/plate and 3934 Colonies/plate | Positive control, number of back mutation, mean (in parentheses) ([6]; S9 Mix required, 2.0 μg/plate): (262) Colonies/plate | Positive control, number of back mutation, single plates ([6]; S9 Mix required, 2.0 μg/plate): 257 Colonies/plate and 267 Colonies/plate

From patent publication US8471061B2 (priority 2004, dated 2013)
